Literature values as cited in US20240361407A1, “SYSTEMS AND METHODS FOR GENERATION OF HYPERPOLARIZED MATERIALS” (priority 2021, published 2024).
In brackets after ≈: the same amount, converted by molar mass.

Conditions: aqueous solution

solubility: 60 mM (≈ 6960 µg/mL)
SMILES: O=C(O)/C=C/C(=O)O [fumaric acid]
